Laboratory results as given in US20140329892A1, “ADMINISTRATION OF A BIS(THIOHYDRAZIDE AMIDE) COMPOUND FOR TREATING CANCERS” (priority 2011, published 2014).

Legend:
HL-60 cells [1] = test: Cellular copper and elesclomol levels after elesclomol incubation; assay type: cell-based, human; conditions: 100 nM, 3 hours
Description: PBMCs and HL-60 cells were incubated with a vehicle (DMSO) or with 100 nM elesclomol for 3 hours. Subsequent to incubation, cellular copper levels and elesclomol levels for PBMCs and HL-60 cells were determined and are shown in FIG. 3.

[2] = Pharmacokinetics of I.V. bolus and continuous infusion (Alzet pump) in mice; assay type: in vivo, Mouse
Description: (§2) Mice received elesclomol salt administered in a single I.V. bolus dose of 50 mg/kg. Mice also received elesclomol salt administered by continuous infusion via Alzet pump. The pump was filled with a 40 mg/mL solution of elesclomol salt, and the solution was administered at 1 ml/hr, for a total daily dose of 32 mg/kg/day, based on average body weight of 30 g. The solution was delivered continuously for 7 days, and exposure was calculated from plasma levels collected at 70 hours post pump implantation.

[3] = Mouse toxicity study of elesclomol salt continuously administered via Alzet pump; design: species or system mice of strain CD1; conditions: in vivo
Description: A total of 15 mice of strain CD1 were used for the toxicity study, of which 10 were in the elesclomol salt treatment group, and 5 were in the control group. Alzet pump was filled with a total of 200 μl of infusion solution and implanted subcutaneously within 1-2 hours. The infusion solution was continuously delivered for 7 days, and the pump was replaced with a new pump at day 8.

[4] = Pharmacokinetics of 1-hour infusion in humans; conditions: Human, 200 mg/m^2
Description: as §2

HL-60 cells [5] = test: Subcellular copper content by BCA assay after elesclomol-Cu treatment; assay type: cell-based, human; conditions: HL-60 cells treated for 2 hours
Description: (§1) Human peripheral blood mononuclear cells (PBMCs) from 3 independent donors and human promyelotic tumor cell line HL-60 were treated with the elesclomol-Cu complex for 2 hours. Cells were subsequently fractionated into cytosolic, nuclear or mitochondrial fractions and the subcellular copper content was determined by BCA assay.

[6] = tested on: peripheral blood mononuclear cells (PBMCs); test: as above; assay type: cell-based, human; conditions: PBMCs from 3 donors treated for 2 hours
Description: as §1

[7] = tested on: mitochondria isolated from HL-60 cells; test: MitoSox Red ROS assay in isolated mitochondria; assay type: cell-based, human; conditions: HL-60-derived mitochondria, 0.2 μM and 1 μM, 30 minutes
Description: Mitochondria isolated from PBMCs or from HL-60 cells were treated for 30 minutes with either DMSO, free copper (CuCl2) at the concentrations of 0.2 μM and 1 μM, disulfiram-Cu complex (DSF-Cu) at the concentrations of 0.2 μM and 1 μM, and elesclomol-Cu complex at the concentrations of 0.2 μM and 1 μM. Subsequent to incubation, ROS levels were measured by MitoSox Red. The results of the MitoSox Red assay are shown in FIG. 2 as mean±SD of experiments with PBMCs isolated from three independent donors or with three individual experiments with HL-60.

[8] = tested on: HL-60 cells enriched with ^63Cu; test: Cellular 63Cu and 65Cu levels by ICP-MS; assay type: cell-based, human; conditions: 100 nM, 0, 0.5, 3 and 9 hours, 10% FBS medium
Description: A complex of elesclomol with ^65Cu was prepared. HL-60 cells enriched with ^63Cu were treated with 100 nM elesclomol-^65Cu or 100 nM free ^65Cu for 0, 0.5, 3 and 9 hours in 10% FBS medium. Cellular ^63Cu and ^65Cu levels were measured by inductively coupled plasma mass spectroscopy (ICP-MS).

Q: For `CN(NC(=O)CC(=O)NN(C)C(=S)c1ccccc1)C(=S)c1ccccc1` [elesclomol, Elesclomol], which cellular copper levels (HL-60 cells [1]; HL-60 cells) is on record?
A: The cellular copper levels was “remarkably and selectively elevated”.

Q: And the cellular elesclomol levels (HL-60 cells [1]; HL-60 cells compared with PBMCs)?
A: The cellular elesclomol levels was “slightly lower than that in PBMCs”.

Q: What about the Exposure/day ([2]; Mouse, elesclomol salt I.V. bolus, 50 mg/kg) of the same compound?
A: Its Exposure/day is 5140 h * ng/mL/d.

Q: And the Exposure/day ([2]; Mouse, elesclomol salt by continuous infusion (pump), 32 mg/kg/d, calculated from plasma levels at 70 hours post pump implantation)?
A: Its Exposure/day is 1183 h * ng/mL/d.

Q: What about the “overall toxicity / adverse effects” value [3] of the same compound?
A: The value was “not associated with acute toxicity”.

Q: What about the Exposure/day [4] of the same compound?
A: Its Exposure/day is 4938 h * ng/mL/d.

Q: For `CN1C(c2ccccc2)=[S][Cu]23[S]=C(c4ccccc4)N(C)[N]2C(=O)CC(=O)[N]13` [Elesclomol-Cu], which “relative copper levels in the nuclear, cytosolic and mitochondrial fractions” value (HL-60 cells [5]) is on record?
A: The value was “copper levels increased only in HL-60 cells, particularly, in the mitochondrial fraction”.

Q: And the “relative copper levels in the nuclear, cytosolic and mitochondrial fractions” value [6]?
A: Its value is “increased only in HL-60 cells”.

Q: What about the “ROS levels (MitoSox Red)” value [7] of the same compound?
A: Its value is “induces ROS in HL-60-derived mitochondria”.

Q: And the Exposure/day ([2]; mouse, in vivo, 32 mg/kg/day)?
A: Its Exposure/day is 516 h * ng/mL/d.

Q: What about the Exposure/day ([2]; mouse, in vivo, iv, 50 mg/kg) of the same compound?
A: The Exposure/day was 670 h * ng/mL/d.

Q: What does the source list for `CN1C(c2ccccc2)=[S][65Cu]23[S]=C(c4ccccc4)N(C)[N]2C(=O)CC(=O)[N]13` [elesclomol-^65Cu]?
A: accumulation of ^63Cu in cells [8]: cause accumulation of ^63Cu in HL-60 cancer cells; amount of copper accumulated in the cells versus length of exposure [8]: directly proportional to the length of time
